We go through six compounds from patent publication US20040224922A1, “Use of charged dextran as a mucoactive agent and methods and pharmaceutical compositions relating thereto” (priority 1999, published 2004).

One series has as its system human subjects. The settings on record: oral, human subjects [34]; cited from earlier work.
A short description of series [1]: Viscoelasticity of cystic fibrosis sputum in vitro by magnetic rheometry. As to conditions: final concentration 8 mg/ml in CF sputum. Also noted: species or system human. An excerpt: FIG. 5 is a bar graph illustrating the effect of heparin and dextran sulfate on […] of sputum from 7 cystic fibrosis human patients as determined by magnetic rheometry, expressed as the average log G* over 1-100 rad/s after treatment with saline, heparin (MW 6000), Dextran Sulfate (MW 5000, about 17% sulphur by weight), heparin (dimer, highly (fully) sulfated, H-9267: C12H13NO19S3Na4), or heparin (dimer, low sulfate, partially de-sulfated H-9142, C12H18NO13SNa) to a final concentration of about 8 mg/ml (or […]) of sputum. […] The effect was similar to heparin, M.W. 6000.
Mucus Viscoelasticity Measurements: The magnetic microrheometer technique was used to measure the viscosity and elasticity of the dog mucus samples [21]. A […] steel ball was positioned in a 5-10 mL sample of mucus, and the motion of this sphere under the influence of an oscillating electromagnetic field gradient was used to determine the rheological properties of the mucus. The image of the steel ball was projected via a microscope onto a pair of photocells, whose output was amplified and transmitted to an oscilloscope. […]
(§1) The parameters of mucus viscoelasticity determined were the rigidity index or mechanical impedance, i.e. G*, reported here on a log scale, expressing the average vector sum of “viscosity+elasticity” over the frequency range 1-100 rad/s, and tan d, the mechanical loss tangent, expressing the ratio of viscous to elastic deformation. These viscoelastic parameters can be used to predict mucus clearability by ciliary and cough mechanisms, based on the measured Theological properties and observations of clearance from model studies.
(a) In vitro Sputum from 7 cystic fibrosis human patients were measured with regards to viscoelasticity after treatment with saline, heparin (MW˜6000), dextran sulfate (MW˜5000), heparin (dimer, highly sulfated), or heparin (dimer, de-sulfated) in accordance with the protocols for measuring viscoelasticity described in Example 1. […]

Series [2] deals with healthy mongrel dogs. Put plainly: Tracheal mucociliary velocity (TMV) by charcoal particle displacement. The class given is in vivo, dog. On the procedure: Seven healthy mongrel dogs (6 male/1 female), weight 21-28 kg, with no respiratory tract bacterial infections, were studied. The dogs were anesthetized with sodium pentobarbital (ca 30 mg/kg i.v., supplemented as required) and intubated with a cuffed endotracheal tube. They were administered Ringer aerosol first, followed by 6.5 mg/ml dextran sulfate, 20 mg/ml dextran sulfate, and 65 mg/ml dextran sulfate by aerosol. Each aerosolization was of 30 minutes duration, with a rest period of 30 minutes before the beginning of the next aerosol delivery. The aerosols were generated and delivered by a Pari LC STAR nebulizer using an air flow rate of 8 l/min, which results in an output of 0.58 ml/min and particles of […] mass median diameter. The nebulizer was loaded in each case with 10 ml of solution. The amount of solution remaining in the nebulizer after 30 minutes was recorded. A T-tube connection was provided to the endotracheal tube during aerosol delivery to ensure a minimal deadspace for ventilation and adequate delivery of the aerosol. […]
(§2) Tracheal mucus velocity (TMV) and tracheal potential difference (PD) was measured, and mucus samples were collected for each concentration of delivered drug. TMV was measured twice for each dose, i.e. during aerosolization, between 15 and 25 minutes from the start of aerosol delivery (designated as period-1), and 10-20 minutes after completion of aerosolization (designated as period-2). PD was measured during the period 5 to 10 minutes following each aerosol. […]
Tracheal Mucociliary Velocity (TMV, mm/min): TMV was determined by observing the rate of charcoal marker particle transport in the lower trachea. Under bronchoscopic visualization, ca, 5 mL of a charcoal suspension (Charac-50 diluted in Ringer's 1:10) was deposited on a lateral surface of the lower trachea 1-2 cm above the carina, and the rate of cephalad progression of the leading edge of the charcoal spot was monitored over the course of 10 minutes by gradually withdrawing the bronchoscope and recording its position relative to the endotracheal tube. […]

The test system of series [3] is healthy mongrel dogs. Briefly: Tracheal transepithelial potential difference (PD) by agar bridge technique after aerosol. Format: in vivo, dog. The protocol: (§3) Seven healthy mongrel dogs (6 male/1 female), weight 21-28 kg, with no respiratory tract bacterial infections, were studied. The dogs were anesthetized with sodium pentobarbital (ca 30 mg/kg i.v., supplemented as required) and intubated with a cuffed endotracheal tube. They were administered Ringer aerosol first, followed by 6.5 mg/ml dextran sulfate, 20 mg/ml dextran sulfate, and 65 mg/ml dextran sulfate by aerosol. Each aerosolization was of 30 minutes duration, with a rest period of 30 minutes before the beginning of the next aerosol delivery. The aerosols were generated and delivered by a Pari LC STAR nebulizer using an air flow rate of 8 l/min, which results in an output of 0.58 ml/min and particles of […] mass median diameter. The nebulizer was loaded in each case with 10 ml of solution. The amount of solution remaining in the nebulizer after 30 minutes was recorded. A T-tube connection was provided to the endotracheal tube during aerosol delivery to ensure a minimal deadspace for ventilation and adequate delivery of the aerosol. The dogs breathed spontaneously throughout the experiment.
as §2
Transepithelial Potential Difference (PD, -mV); PD was measured by using two flexible microelectrodes (agar bridges of PE 160 size) saturated with KCl connected to calomel half cells, one for reference and the other for testing. […] The PD value was recorded when a steady state, value was achieved and remained stable for a least 30 seconds. […]

Series [4] concerns healthy mongrel dogs. Put plainly: Mucus collection weight (MCW) by endotracheal tube method. Format: in vivo, dog. The protocol:
as §3
(§4) Tracheal mucus velocity (TMV) and tracheal potential difference (PD) was measured, and mucus samples were collected for each concentration of delivered drug. TMV was measured twice for each dose, i.e. during aerosolization, between 15 and 25 minutes from the start of aerosol delivery (designated as period-1), and 10-20 minutes after completion of aerosolization (designated as period-2). PD was measured during the period 5 to 10 minutes following each aerosol. Mucus was collected twice for each aerosol, once immediately after 30 minutes of aerosolization and a second time after an additional 30 minutes of spontaneous breathing.
Mucus Collection Weight (MCW, mg/30 min): Tracheal mucus was collected by the endotracheal tube (ETT) method, which involves the removal of mucus adherent to the ETT after extubation. Mucus collections were performed twice after each aerosol, once by immediately removing the ETT following aerosol inhalation, and the second 30 minute after inhalation, after re-installing a clean ETT The mucus samples, which had been frozen, were thawed and weighed by microbalance, to determine MCW, an index of flux, and indirectly of the rate of secretion.

Series [5] concerns healthy mongrel dogs. Put plainly: Tracheal mucus viscoelasticity by magnetic microrheometry after aerosol. Format: in vivo, dog. On the procedure:
as §3, §4
All samples of dog mucus collected from endotracheal tubes were placed in 1.5 ml Eppendorf tubes for measurement of viscoelasticity by magnetic rheometry. After initial rheological testing, the mucus samples were preserved at −80° C. for subsequent analysis of collection rate and solids content.
Mucus Viscoelasticity Measurements: The magnetic microrheometer technique was used to measure the viscosity and elasticity of the dog mucus samples [21]. A […] steel ball was positioned in a 5-10 mL sample of mucus, and the motion of this sphere under the influence of an oscillating electromagnetic field gradient was used to determine the rheological properties of the mucus. The image of the steel ball was projected via a microscope onto a pair of photocells, whose output was amplified and transmitted to an oscilloscope. By plotting the displacement of the ball against the magnetic driving force, the viscoelastic properties of the mucus were ascertained.
as §1
(b) In vivo Seven healthy dogs were anesthetized, intubated and treated via aerosol with heparin sodium (MW 5000-6000) or dextran sulfate (MW 5000) and mucus viscoelasticity, transepithelial potential difference (PD) and tracheal mucus velocity (TMV) were determined, in accordance with the protocols described in Example 1 above. Non-lactated Ringer's solution was used as control. […] These changes were accompanied by a nonsignificant, upward trend in TMV, to approximately 130% of control. However, changes might be even more pronounced in animals with initially rigid mucus.

Series [6] has as its system healthy mongrel dogs. Briefly: Solids content (% SC) of collected airway secretion. Format: in vivo, dog. On the procedure: as §3, §2
Solids content (wet:dry weight ratio): A drying apparatus and microbalance were used to calculate the dry weight and wet weight of the collected secretion, from which the percent solids content (% SC) was calculated. […] These dried samples were then reweighed, and % SC was calculated from ratio of dry to wet weight.

Series [7] deals with healthy mongrel dogs. Put plainly: Tolerability / toxic effects of aerosol inhalation in dogs. The class given is in vivo, dog.
Procedure: Seven healthy mongrel dogs (6 male/1 female), weight 21-28 kg, with no respiratory tract bacterial infections, were studied. The dogs were anesthetized with sodium pentobarbital (ca 30 mg/kg i.v., supplemented as required) and intubated with a cuffed endotracheal tube. They were administered Ringer aerosol first, followed by 6.5 mg/ml dextran sulfate, 20 mg/ml dextran sulfate, and 65 mg/ml dextran sulfate by aerosol. Each aerosolization was of 30 minutes duration, with a rest period of 30 minutes before the beginning of the next aerosol delivery. The aerosols were generated and delivered by a Pari LC STAR nebulizer using an air flow rate of 8 l/min, which results in an output of 0.58 ml/min and particles of 2.0 mm mass median diameter. The nebulizer was loaded in each case with 10 ml of solution. The amount of solution remaining in the nebulizer after 30 minutes was recorded. A T-tube connection was provided to the endotracheal tube during aerosol delivery to ensure a minimal deadspace for ventilation and adequate delivery of the aerosol. The dogs breathed spontaneously throughout the experiment.

Take “dextran sulfate [dextran sulfate (m.w. 7000)]”: in the series on human subjects, the absorbability entry is listed as “poor absorbablity”, the anticoagulant effect entry was “little anticoagulant effect” and the other safety concerns entry is reported as “no other apparent safety concerns”.

Consider `O=C(O)C1=C[C@H](O)[C@@H](OS(=O)(=O)O)[C@H](O[C@H]2[C@H](O)[C@@H](NS(=O)(=O)O)C(O)O[C@@H]2COS(=O)(=O)O)O1` (stereo partly shown) [highly sulfated heparin dimer], for which the “viscoelasticity (average log G* over 1-100 rad/s) compared to saline control” value in series [1] is listed as “significant decrease in viscoelasticity”.

Dextran sulfate, sodium salt [DexSO4]: in the series on healthy mongrel dogs [2] (6.5 mg/ml aerosol (first dose), non-significant, p=0.066), the “TMV, % of baseline” value is 128 % of baseline. In addition, the “change in mucociliary velocity (TMV)” value in the series on healthy mongrel dogs [2] (aerosol 6.5-65 mg/ml, during and after aerosolization) was “no significant change”. In addition, the “mean increase in PD (maximal change)” value with healthy mongrel dogs [3] (65 mg/ml aerosol, vs Ringer control) is reported as 9.86 mV. Besides, the “PD compared with Ringer control” value in the series on healthy mongrel dogs [3] (after 30-minute aerosol at 6.5, 20 and 65 mg/ml, 7 dogs) was “increased significantly”. Also, the “mucus collection weight (MCW, mg/30 min)” value came out at 4.35 ± 0.67 mg in the series on healthy mongrel dogs [4] (6.5 mg/ml-1 (collected immediately after aerosol), wet weight); 4.47 ± 0.59 mg in the series on healthy mongrel dogs [4] (20 mg/ml-1, wet weight); 5.64 ± 1.14 mg in the series with healthy mongrel dogs [4] (65 mg/ml-1, wet weight). For the same compound, the “change in mucus collection weight with increasing concentration” value in the series on healthy mongrel dogs [4] (6.5-65 mg/ml aerosol) was “no change”. Further, the “mucus recoil parameter, tan d” value in the series with healthy mongrel dogs [5] (aerosol 6.5-65 mg/ml) is listed as “no significant changes”. In the series with healthy mongrel dogs [5] (aerosol at 6.5 and 65 mg/ml), the “average log G* compared with respective Ringer control” value is on record as “significant decrease”. In addition, the “decrease in G* expressed as a factor” value in the series on healthy mongrel dogs [5] (during 65 mg/ml aerosol) is on record as 2.61. Also, in the series on healthy mongrel dogs [5] (during 65 mg/ml aerosol, vs Ringer, p=0.021), the “mean decrease in average log G* (1-100 rad/s)” value turned out to be 0.42 log units. Besides, the “effective concentration range relative to neutral dextran (reduced viscoelastic modulus, predicted clearance)” value with healthy mongrel dogs [5] (in vivo, healthy dog mucus) is “half-log lower concentration range”. Moreover, the “solids content (% SC) of collected fluid” value in the series with healthy mongrel dogs [6] (65 mg/ml-1 (Ringer-1: 6.16±0.20%), p=0.042) turned out to be 9.27±1.02%; in the series with healthy mongrel dogs [6] (65 mg/ml-2 (Ringer-2: 6.87±0.92%), p=0.009) it was 10.78%. In addition, in the series on healthy mongrel dogs [6] (increasing concentrations 6.5, 20, 65 mg/ml), the “effect on mucus % solids content” value is “significant increase”. For the same compound, the bronchial mucosal appearance entry with healthy mongrel dogs [7] (aerosol 6.5, 20, 65 mg/ml) is reported as “remained normal”. In the series with healthy mongrel dogs [7] (aerosol 6.5, 20, 65 mg/ml, 30 min each, all seven dogs), the “cough or other side effects during inhalation” value is “without significant cough or other side effects”. Further, the toxic effects result in the series with healthy mongrel dogs [7] (present study, aerosol in dogs) is on record as “no toxic effects”.

Regarding heparin sodium [reference compound], the “TMV, % of control” value in the series with healthy mongrel dogs [2] (6.5 mg/ml aerosol, nonsignificant upward trend) is “approximately 130 % of control”. For the same compound, the “PD, % of control” value in the series on healthy mongrel dogs [3] (6.5 mg/ml aerosol, significant decrease, Ringer control) is recorded as 55.1 % of control. Moreover, the “mucus viscoelasticity (G*), % of control” value in the series with healthy mongrel dogs [5] (6.5 mg/ml aerosol, significantly decreased) is 36 % of control.

For the compound `N[C@H]1C(O)O[C@H](CO)[C@@H](O[C@@H]2OC(C(=O)O)=C[C@H](O)[C@H]2OS(=O)(=O)O)[C@@H]1O` (stereo partly shown) [de-sulfated heparin dimer], the “viscoelasticity (average log G* over 1-100 rad/s) compared to saline control” value in series [1] is “no significant improvement”.

Turning to heparin [heparin, MW 6000], in series [1], the “viscoelasticity (average log G* over 1-100 rad/s) compared to saline control” value is “similar”.
